US20090221520A1, “Polyene Antibiotics, Compositions Containing Said Antibiotics, Method and Micro-Organisms Used to Obtain Same and Applications Thereof” (priority 2005, published 2009)

What was measured:
Human erythrocytes = test: Trials of haemolytic activity (toxicity) on human blood; format: cell-based; details: for haemolytic activity as a total percentage of haemolysis: 2.5% human blood, 37° C., 30 minutes, Example 1
Protocol: The trials were conducted according to the method described by Gómez-Gómez et al. (Gómez-Gómez, J. M. et al., 1996, Mol. Microbiol. 19: 909-910). The samples of polyenes were first dried and then dissolved in DMSO at an estimated concentration of 10 to 30 mg/mL. Increasing quantities of the different polyenes were taken to a final volume of 100 μL of DMSO and mixed by means of gentle stirring with 500 μL of PBS buffer (Gómez-Gómez, J. M. et al., 1996, cited earlier), containing 2.5% of human blood, or eventually that of horse. After incubation at 37° C. for 30 minutes without stirring, the cells were sedimented by centrifugation and the degree of haemolysis was assessed by means of measuring the absorption at 545 nm. The values corresponding to the total haemolysis were estimated with a suspension of 2.5% of horse blood in distilled water. The human blood (fundamentally erythrocytes) was obtained from local blood banks (Hospital Ramón y Cajal, Madrid); the horse blood came from Oxoid (defibrinated blood). The amphotericin B and the nystatin were obtained from Sigma (catalogue numbers A-4888 and N-3503, respectively) and the pimaricin came from Calbiochem (527962). All these polyenes were tested directly from commercial samples, without any additional purification
In the above experiments it is clear that the modification of the novel amidated polyenes, produced by the genetic recombinants of Streptomyces diastaticus var. 108 gave rise to compounds with high antifungal activity. […] Human erythrocytes were used as cell models for this study (Cybulska B, et al., 2000, Acta Biochim. Pol. 47: 121-131; Gómez-Gómez, J. M. et al., 1996, Mol. Microbiol. 19: 909-910). The haemolytic activity of the novel compounds was assessed (see the section relating to Experimental Methods) against rimocidin and CE-108; amphotericin B and nystatin A were also included. […] It is worth while highlighting the differences in toxicity observed between CE-108 (IIb) and CE-108B (I-1b) with rimocidin (IIa) and rimocidin B (I-1a); while 50% of haemolysis is achieved with 40 to 60 nanomoles for the last two polyenes, a concentration of CE-108 and is amide 6 or 7 times greater is required in order to achieve the same degree of haemolysis.
The trials were conducted on human blood enriched in eritrocytes, as described previously in Example 1.
In order to measure whether other pharmacological properties of the novel tetraenes were different, haemolytic activity trials were conducted and compared with the parent compounds. Human eritrocytes, were used for these tests. It can be pointed out that although the antifungal activities of rimocidin (IIa) and rimocidin C (IIIa) were similar, their toxicities (measured in terms of haemolytic activity) were 2.5-5 times lower for rimocidin C (IIIa) than for rimocidin (IIa).

[1] = tested on: Penicillium chrysogenum, Candida albicans, Aspergillus niger, Candida krusei and Cryptococcus neoformans; test: Antifungal activity trials, paper discs on bioassay plates; format: cell-based; details: for antifungal activity (in words): paper disc trials, Example 1; for increase of antifungal activity by substitution of the free carboxyl- group for the amide- group: versus parent tetraene, all tested fungi, paper discs 9 mm; for antifungal activities compared with the end products rimocidin (IIa) and CE-108 (IIb): measured as in example 1, Example 2
Protocol: P. chysogenum, C. krusei, A. niger, C. albicans and C. neoformans, fungi used for testing antifungal activity, were grown in MPDA medium (composition: 2% malt extract, 2% glucose, 0.1% Bactopeptone).
(§1) The antifungal activity of the novel amidated tetraenes [rimocidin B (I-1a) and CE-108B (I-1b)] was tested against various fungi: Penicillium chrysogenum, Candida albicans, Aspergillus niger, Candida krusei and Cryptococcus neoformans. Increasing quantities of the different tetraenes, dissolved in methanol, were applied to paper discs (9 mm in diameter); following the application, the discs were dried and placed on bioassay plates on which the corresponding test fungi had previously been spread. The activity of these amidated tetraenes was compared with that of the molecules from which they derived [[…]], showing that the biological activity of the amidated polyenes was substantially greater than that of the corresponding tetraenes that they derived from (FIG. 2) in all tested fungi. In all cases, the substitution of the free carboxyl- group for the amide- group increased the antifungal activity by approximately fourfold.
The antifungal activity of the novel non-carboxylated tetraenes rimocidin C (IIIa) and CE-108C (IIIb) was measured against Penicillium chrysogenum, Candida albicans, Aspergillus niger, Candida krusei and Cryptococcus neoformans, in comparison with that of the native tetraenes rimocidin (IIa) and CE-108 (IIb).

Penicillium chrysogenum = test: Antifungal activity of pimaricin and AB-400 towards P. chrysogenum; format: cell-based; details: for antifungal activity at the tested concentration: P. chrysogenum, a total of 200 ng added in each test
Protocol: RGU5.3. […] RGU5.3 grown in medium with acetate (FIG. 3A) or glucose (FIG. 3B) as source of carbon, respectively. FIG. 3C illustrates the antifungal activity of pimaricin (IVa) and AB-400 (IVb) towards P. chrysogenum; the samples of polyenes applied were (1): commercial pimaricin (Calbiochem […]), (2): total extract of the fermentation culture of S. sp. RGU5.3 grown in glucose medium; (3) purified AB-400 coming from S. sp. RGU5.3 and (4) pimaricin coming from S. sp. RGU5.3; a total of 200 ng. were added in each test.
as §1
The same results were obtained comparing pimaricin (IVa) and its amidated derivative AB-400 (IVb). Both compounds were purified starting from the isolated strain Streptomyces sp. RGU5.3, as indicated in the section on Experimental Methods. […] In this way, using a fermentation culture containing glucose as the source of carbon and not sodium acetate, the pimaricin/AB-400 balance is 70/30; when the same medium is supplemented with sodium acetate, the production profile is reversed, being AB-400 (IVb) the main polyene compound produced (FIG. 3). […]

Compound: CE-108B [CE-108B (I-1b)]
- concentration required to achieve the same degree (50%) of haemolysis, times greater than for rimocidin and rimocidin B (Human erythrocytes): 6 or 7 times
- haemolytic activity compared with the corresponding tetraene it derived from (Human erythrocytes): not significantly different
- haemolytic activity, times lower than that of rimocidin (Human erythrocytes): 6 or 7 times
- antifungal activity (in words) [1]: almost as high as that of rimocidin
- increase of antifungal activity by substitution of the free carboxyl- group for the amide- group [1]: approximately fourfold

Compound: CCC1C(=O)O[C@H](C)C/C=C/C=C/C=C/C=C/[C@H](OC2OC(C)C(O)C(N)C2O)C[C@@H]2O[C@](O)(CC(O)CCCC(=O)CC1O)C[C@H](O)[C@H]2C(=O)O (stereo partly drawn) [CE-108 (IIb), CE-108]
- concentration required to achieve the same degree (50%) of haemolysis, times greater than for rimocidin and rimocidin B (Human erythrocytes): 6 or 7 times
- antifungal activity (in words) [1]: low

Compound: C[C@@H]1C/C=C/C=C/C=C/C=C/[C@H](O[C@@H]2O[C@H](C)[C@@H](O)[C@H](N)[C@@H]2O)C[C@@H]2O[C@](O)(C[C@@H](O)C[C@H]3O[C@@H]3/C=C/C(=O)O1)C[C@H](O)[C@H]2C(=O)O [pimaricin (IVa), pimaricin]
- antifungal activity at the tested concentration (Penicillium chrysogenum): no antifungal activity was observed

Compound: rimocidin B [Rimocidin B (I-1a)]
- haemolytic activity compared with the corresponding tetraene it derived from (Human erythrocytes): not significantly different
- quantity with which 50% of haemolysis is achieved (Human erythrocytes): 40 to 60 nmol
- increase of antifungal activity by substitution of the free carboxyl- group for the amide- group [1]: approximately fourfold

Compound: C[C@@H]1[C@H](O)[C@@H](C)/C=C/C=C/CC/C=C/C=C/C=C/C=C/C(O[C@H]2O[C@H](C)[C@@H](O)[C@H](N)[C@@H]2O)CC2O[C@](O)(CC(O)C(O)CCC(O)CC(O)CC(O)CC(=O)O[C@H]1C)CC(O)C2C(=O)O (stereo partly drawn) [Nystatin A, nystatin A]
- haemolytic activity as a total percentage of haemolysis (Human erythrocytes; 20 nanomoles of polyene): 2.20%
- haemolytic activity as a total percentage of haemolysis (Human erythrocytes; 40 nanomoles of polyene): 49.53%
- haemolytic activity as a total percentage of haemolysis (Human erythrocytes; 60 nanomoles of polyene): 76.80%
- haemolytic activity as a total percentage of haemolysis (Human erythrocytes; 80 nanomoles of polyene): 92.79%
- haemolytic activity as a total percentage of haemolysis (Human erythrocytes; 100 nanomoles of polyene): 100.00%

Compound: 14-decarboxy-14-methyl-rimocidin [Rimocidin C (IIIa)]
- toxicity (measured in terms of haemolytic activity), times lower than for rimocidin (IIa) (Human erythrocytes): 2.5-5 times
- antifungal activities compared with the end products rimocidin (IIa) and CE-108 (IIb) [1]: not significantly different

Compound: C[C@@H]1C\C=C/C=C\C=C/C=C[C@H](O[C@@H]2O[C@H](C)[C@@H](O)[C@H](N)[C@@H]2O)C[C@@H]2O[C@](O)(C[C@@H](O)C[C@H]3O[C@@H]3/C=C\C(=O)O1)C[C@H](O)[C@H]2C(N)=O [AB-400 (IVb), AB-400]
- haemolytic activity of AB-400 compared with commercial pimaricin (Human erythrocytes): did not show significant differences
- antifungal activity at the tested concentration (Penicillium chrysogenum): highly active
- difference in antifungal activity between AB-400 and pimaricin (Penicillium chrysogenum; Penicillium chrysogenum): ~1 order of magnitude
- solubility compared with the parent / non-amidated compound (Solubility): increase in their solubility

Compound: CCC[C@@H]1C/C=C/C=C/C=C/C=C/[C@H](O[C@@H]2O[C@H](C)[C@@H](O)[C@H](N)[C@@H]2O)C[C@@H]2O[C@](O)(C[C@@H](O)CCCC(=O)C[C@@H](O)[C@H](CC)C(=O)O1)C[C@H](O)[C@H]2C(=O)O [Rimocidin (IIa), rimocidin]
- quantity with which 50% of haemolysis is achieved (Human erythrocytes): 40 to 60 nmol

Compound: 14-decarboxy-methyl-CE-108 [CE-108C (IIIb)]
- antifungal activities compared with the end products rimocidin (IIa) and CE-108 (IIb) [1]: not significantly different
